Test results: patent US7078552B2, “Combretastatin A-1 phosphate and combretastatin B-1 phosphate prodrugs” (Arizona Board of Regents, priority 2000, dated 2006)
pIC50: −log10 of the molar value. Converted amounts (≈) assume the structure as drawn. Where two headings read alike, the source gives them in different places.

What was measured:
P388 leukemia = conditions: early murine P388 leukemia in vivo experiments, compared with combretastatin A-4; cited from earlier work
DU-I45 = assay: Human cancer cell line growth inhibition, Prostate DU-I45; format: cell-based; conditions: for GI50: Homo sapiens
BXPC-3 = assay: Human cancer cell line growth inhibition, Pancreas-a BXPC-3; format: cell-based; conditions: for GI50: Homo sapiens
NCl-H460 = assay: Human cancer cell line growth inhibition, Lung-NSC NCl-H460; format: cell-based; conditions: for GI50: Homo sapiens
[1] = system: P388 lymphocytic leukemia cell line; assay: Murine P388 lymphocytic leukemia in vitro cell growth inhibition; format: cell-based
[2] = system: P388 lymphocytic leukemia cell line; conditions: literature (Pettit et al, 1987, 1989); cited from earlier work
tubulin = conditions: at equal concentrations; cited from earlier work
[3] = system: tubulin (microtubule assembly); conditions: literature (Pettit et al, 1987, 1989); read-out: IC50 inhibiting microtubule assembly in vitro; cited from earlier work
KM20L2 = assay: Human cancer cell line growth inhibition, Colon KM20L2; format: cell-based; conditions: for GI50: Homo sapiens, KM-20L2
OVCAR-3 = assay: Human cancer cell line growth inhibition, Ovarian OVCAR-3; format: cell-based; conditions: for GI50: Homo sapiens
SF-295 = assay: Human cancer cell line growth inhibition, CNS SF-295; format: cell-based; conditions: for GI50: Homo sapiens
[4] = 1 mL distilled water at 25° C., Table I
physchem = conditions: water
[5] = system: P388 and human tumor cell lines; assay: Cytotoxicity versus the P388 and human tumor cell lines, comparative statements

Row | Molecule | Prostate DU-I45 GI50 (DU-I45) | Pancreas-a BXPC-3 GI50 (BXPC-3) | Lung-NSC NCl-H460 GI50 (NCl-H460) | Leukemia P388 ED50 ([1]; P388 cell line) | Colon KM20L2 GI50 (KM20L2) | Ovarian OVCAR-3 GI50 (OVCAR-3) | CNS SF-295 GI50 (SF-295) | further results
1 | COc1ccc(/C=C\c2cc(OC)c(OC)c(OC)c2)c(O)c1O [Compound 1, Combretastatin A-1] | 0.17 µg/mL | 4.4 µg/mL | 0.74 µg/mL | 0.251 µg/mL |  |  |  | antineoplastic results in vivo (P388 leukemia): more consistent antineoplastic results; ED50 against murine P388 lymphocytic leukemia in vitro system [2]: 0.99 µg/mL (≈ 2980 nM); inhibition of colchicine binding to tubulin (tubulin): ~99%; pIC50 [3]: 5.70
2 | COc1ccc(CCc2cc(OC)c(OC)c(OC)c2)c(O)c1O [Compound 2, combretastatin B-1] |  |  |  |  |  |  |  | Leukemia P388 ED50 [1]: 1.7 µg/mL; ED50 against murine P388 lymphocytic leukemia in vitro system [2]: 1.7 µg/mL (≈ 5080 nM); pIC50 [3]: 5.52
3 | COc1ccc(/C=C\c2cc(OC)c(OC)c(OC)c2)cc1O [Compound 3a, combretastatin A-4, reference compound] |  |  |  | 0.0003 µg/mL |  |  |  | GI50 (KM20L2): 0.061 µg/mL (≈ 193 nM); GI50 (OVCAR-3): < 0.001 µg/mL; GI50 (DU-I45): 0.0008 µg/mL (≈ 2.53 nM); GI50 (BXPC-3): 0.39 µg/mL (≈ 1230 nM); GI50 (NCl-H460): 0.0006 µg/mL (≈ 1.9 nM); ED50 against murine P388 lymphocytic leukemia in vitro system [2]: ~0.0009 µg/mL (≈ 2.84 nM); GI50 (SF-295): < 0.001 µg/mL; pIC50 [3]: […]
4 | COc1cc(/C=C\c2ccc(OC)c(OP(=O)(O)O)c2OP(=O)(O)O)cc(OC)c1OC [Compound 4, Sodium Combretastatin A-1 2′,3′-O-diphosphate] |  |  |  | <0.0100 µg/mL |  |  |  | GI50 (KM20L2): 0.53 µg/mL; solubility ([4]; second part (column repeated)): 120 mg/mL; GI50 (OVCAR-3): 0.024 µg/mL; GI50 (DU-I45): 0.034 µg/mL; GI50 (BXPC-3): 1.5 µg/mL; GI50 (NCl-H460): 0.038 µg/mL; solubility (physchem; 25 °C): 120 mg/mL; solubility (physchem): 120 mg/mL; GI50 (SF-295): 0.036 µg/mL
5 | COc1cc(CCc2ccc(OC)c(OP(=O)(O)O)c2OP(=O)(O)O)cc(OC)c1OC [Compound 5, Sodium Combretastatin B-1 2′,3′-O-Diphosphate] |  |  |  | 0.335 µg/mL |  |  |  | GI50 (KM20L2): > 10 µg/mL; GI50 (OVCAR-3): 2 µg/mL; GI50 (DU-I45): 2.7 µg/mL; GI50 (BXPC-3): > 10 µg/mL; cytotoxicity / antineoplastic activity compared to prodrug 4 [5]: reduced antineoplastic activity; GI50 (NCl-H460): 3.3 µg/mL; solubility (physchem; 25 °C): > 50 mg/mL; GI50 (SF-295): 2.3 µg/mL
6 | COc1cc(/C=C\c2ccc(OC)c(OP(=O)([O-])[O-])c2OP(=O)([O-])[O-])cc(OC)c1OC.[Li+].[Li+].[Li+].[Li+] [Compound 11a, Lithium Combretastatin A-1 2′,3′-O-diphosphate] | 0.031 µg/mL | 0.33 µg/mL | 0.040 µg/mL | <0.0100 µg/mL | 0.37 µg/mL | 0.028 µg/mL | 0.042 µg/mL | 
7 | COc1cc(/C=C\c2ccc(OC)c(OP(=O)([O-])[O-])c2OP(=O)([O-])[O-])cc(OC)c1OC.[K+].[K+].[K+].[K+] [Compound 11b, Potassium Combretastatin A-1 2′,3′-O-diphosphate] | 0.024 µg/mL | 0.38 µg/mL | 0.036 µg/mL | 0.0170 µg/mL | 0.30 µg/mL | 0.023 µg/mL | 0.035 µg/mL | solubility ([4]; first part): >90 mg/mL; solubility ([4]; second part (column repeated)): >90 mg/mL
8 | COc1cc(/C=C\c2ccc(OC)c(OP(=O)([O-])[O-])c2OP(=O)([O-])[O-])cc(OC)c1OC.[Cs+].[Cs+].[Cs+].[Cs+] [Compound 11c, Cesium Combretastatin A-1 2′,3′-O-diphosphate] | 0.024 µg/mL | 0.31 µg/mL | 0.040 µg/mL | 0.0365 µg/mL | 0.28 µg/mL | 0.024 µg/mL | 0.038 µg/mL | 
9 | COc1cc(/C=C\c2ccc(OC)c(OP(=O)([O-])[O-])c2OP(=O)([O-])[O-])cc(OC)c1OC.[Mn+2].[Mn+2] [Compound 11f, Manganese Combretastatin A-1 2′, 3′-O-diphosphate] | 2.4 µg/mL | 4.7 µg/mL | 0.19 µg/mL | 0.715 µg/mL | 6.1 µg/mL | 0.044 µg/mL | 0.28 µg/mL | 
10 | COc1cc(/C=C\c2ccc(OC)c(OP(=O)([O-])[O-])c2OP(=O)([O-])[O-])cc(OC)c1OC.[Zn+2].[Zn+2] [Compound 11g, Dizinc Combretastatin A-1 2′,3′-O-diphosphate] | 0.025 µg/mL | 0.36 µg/mL | 0.032 µg/mL | 0.0394 µg/mL | 0.32 µg/mL | 0.027 µg/mL | 0.033 µg/mL | 
11 | Calcium Combretastatin A-1 2′,3′-O-diphosphate [Compound 11e] | 0.024 µg/mL | 0.28 µg/mL | 0.037 µg/mL | 0.0102 µg/mL | 0.34 µg/mL | 0.024 µg/mL | 0.041 µg/mL | 
12 | Magnesium Combretastatin A-1 2′,3′-O-diphosphate [Compound 11d] | 0.032 µg/mL | 0.44 µg/mL | 0.039 µg/mL | 0.0245 µg/mL | 0.47 µg/mL | 0.031 µg/mL | 0.039 µg/mL | 
13 | Morpholine Combretastatin A-1 2′,3′-O-diphosphate [Compound 11h] | 0.039 µg/mL | 0.35 µg/mL | 0.046 µg/mL | 0.002 µg/mL | 0.26 µg/mL | 0.043 µg/mL | 0.042 µg/mL | 
14 | Nicotinamide Combretastatin A-1 2′,3′-O-diphosphate [Compound 11j] | 0.046 µg/mL | 0.42 µg/mL | 0.15 µg/mL | 0.005 µg/mL | 0.53 µg/mL | 0.054 µg/mL | 0.053 µg/mL | 
15 | Papaverine Combretastatin A-1 2′,3′-O-diphosphate [Compound 11n] | 0.054 µg/mL | 0.38 µg/mL | 0.27 µg/mL | 0.05 µg/mL | 0.33 µg/mL | 0.052 µg/mL | 0.063 µg/mL | 
16 | Piperazine Combretastatin in A-1 2′,3′-O-diphosphate [Compound 11i] | 0.036 µg/mL | 0.35 µg/mL | 0.037 µg/mL | 0.002 µg/mL | 0.20 µg/mL | 0.046 µg/mL | 0.039 µg/mL | 
17 | Quinidine Combretastatin A-1 2′,3′-O-diphosphate [Compound 11l] | 0.10 µg/mL | 0.55 µg/mL | 0.37 µg/mL | 0.004 µg/mL | 0.84 µg/mL | 0.043 µg/mL | 0.056 µg/mL | 
18 | Quinine Combretastatin A-1 2′,3′-O-dephosphate [Compound 11k] | 0.050 µg/mL | 0.47 µg/mL | 0.34 µg/mL | 0.004 µg/mL | 0.40 µg/mL | 0.054 µg/mL | 0.044 µg/mL | 
